{"source": "patent US20090137565A1", "about": "“Method for treatment of movement disorders” (The Trustees of Columbia University in the City of New York, priority 2004, published 2009)", "key": {"[1]": {"experiment": "Twenty-patient trial: side effects and tolerability", "format": "in vivo, human", "details": "twenty patients", "text": "(§1) Twelve men and 8 women enrolled. Results from patients #6, and #s 1, 2, 7, 12, and 13 were reported previously. Frucht, S. J., et al. Mov Disord 20:745-51 (2005); Frucht, S. J., et al. Mov Disord 20:1330-7 (2005). Mean age/symptom duration was 43.9 yrs/12.3 yrs (myoclonus) and 71.2 yrs/26.7 yrs (ET). Patients with myoclonus were examined and videotaped at each visit using the Unified Myoclonus Rating Scale (UMRS), and patients with ET were examined and videotaped using the modified Washington Heights Inwood Genetic Essential Tremor Rating Scale (WHIGET; Appendix 1). Frucht, S. J., et al. Mov Disord 20:1330-7 (2005). After initial baseline examination and videotaping, patients took 1 gm of sodium oxybate by mouth (2 ml of the standard 0.5 gm/ml solution dissolved in 60 ml of water), and one hour later the videotaped examination was repeated. Patients were maintained on a dose of 1 gm T.I.D. (taken before meals) until their next office visit two weeks later, when the examination and videotaping were repeated one hour after receiving 1.5 gm of sodium oxybate. Subsequent visits and dose titrations at two-week intervals were repeated until the maximum dose was reached (3 gm T.I.D), patients were satisfied with the results of treatment, or until they developed side effects that they viewed as troublesome. Dosing for patients #1, 2, 6, 7, 12, and 13 was slightly different (1 gm BID, with dose increments of 2 gm to maximum dose of 4 gm BID), but office visits and videotaping protocol were otherwise identical."}, "[2]": {"test_system": "medication-refractory hyperkinetic movements", "experiment": "Twenty-patient trial: clinical course (onset, wear-off, continuation)", "format": "in vivo, human", "details": "noted by most patients at higher doses", "text": "as §1, with “Dosing for patients #1, 2, 6, 7, 12, and 13 was slightly different (1 gm BID, with dose increments of 2 gm to maximum dose of 4 gm BID), but office visits and videotaping protocol were otherwise identical.” left out"}, "[3]": {"test_system": "ethanol-responsive essential tremor", "experiment": "Five-patient open-label trial of sodium oxybate, blinded WHIGET tremor rating (patients #4, 5)", "format": "in vivo, human", "details": "for WHIGET TOTAL SUSTENTION score: range 0-6; for Rx effect, WHIGET TOTAL ACTION (improvement in tremor): listed as sodium oxybate, monosodium salt", "text": "Five patients were enrolled in a trial from the Movement Disorders Division of Columbia University Medical Center during the fall of 2004. All patients were afflicted with hyperkinetic movement disorders that responded to ethanol (defined as a noticeable change to the patient), and all were refractory to treatment with conventional medications or could not tolerate them. The Medical Center's Institutional Review Board approved the trial, and written and verbal informed consent were obtained from all patients prior to enrollment.\nThe dose and timing of all other drugs were kept constant throughout the trial, and patients were not withdrawn from other medications. Patients #1-3 were examined and videotaped using the Unified Myoclonus Rating Scale (UMRS), and patients #4 and 5 were examined and videotaped using the Washington Heights Inwood Tremor Rating Scale (WHIGET) (see Appendix I). Frucht S. J., et al. Adv Neurol 89:361-76 (2002); Louis, E. D., et al. Mov Disord 16:89-93 (2001).\nSide effects were defined as either minor or serious (leading to hospitalization) using good clinical practice standards (www.who.int/medicines/library/par/ggcp/GCPGuidePharmatrials), and patients were asked to report side effects at each visit. After initial examination and videotaping, patients were given 1 gm of sodium oxybate by mouth (2 ml of the standard 0.5 gm/ml solution dissolved in 60 ml of water). One hour later, the senior author repeated the examination and videotaping. […] After two weeks taking 2 gm twice daily, the procedure was repeated after a 3 gm office dose, and finally two weeks after receiving 3 gm twice daily, the procedure was repeated after a 4 gm office dose. The maximum dose allowed in the trial was 4 gm twice daily. Patients and the senior author determined at each visit whether or not to proceed to the next dose level, based principally on their ability to tolerate the most recent dose regimen. After deciding on a maximum tolerated dose, patients received a dose in the office 0.5 gm less and the examination was videotaped.\nThe entire videotape segments and patient-writing samples from each visit were copied, and were blinded to trial order and identifying features, and were randomly ordered for review using a random number table. A movement disorder expert blinded to trial design and dose schedule, scored each videotape. Sub-scores for each visit were calculated as described previously. Frucht S. J., et al. Adv Neurol 89:361-76 (2002). We modified section 5 of the UMRS in which functional performance (pouring water, using a soup spoon) is performed only with the dominant arm (section V). […] This increased the maximum score of section 5 of the UMRS from 20 to 28."}, "[4]": {"test_system": "alcohol-responsive myoclonus with dystonia", "details": "single patient, recently reported; cited from earlier work"}}, "data": [{"compound": "O=C([O-])CCCO.[Na+]", "note": "[GHB, 4-hydroxybutanoic acid monosodium salt]", "values": [{"measurement": "dose titration limited by ataxia", "setting": "[1]", "result": 20, "unit": "%"}, {"measurement": "dose titration limited by sedation", "setting": "[1]", "result": 60, "unit": "%"}, {"measurement": "mild, transient side effect: dizziness", "setting": "[1]", "result": 35, "unit": "%"}, {"measurement": "mild, transient side effect: emotionality", "setting": "[1]", "result": 20, "unit": "%"}, {"measurement": "mild, transient side effect: headache", "setting": "[1]", "result": 20, "unit": "%"}, {"measurement": "mild, transient side effect: nausea", "setting": "[1]", "result": 10, "unit": "%"}, {"measurement": "tolerability of daytime dosing", "setting": "[1]", "result": "acceptable"}, {"measurement": "wear-off of benefit", "setting": "[2]", "result": "four to five hours"}, {"measurement": "WHIGET TOTAL ACTION score", "setting": "[3]; patient 4, 1 gm, range 0-40, 0 gm score 19.5", "result": 10}, {"measurement": "WHIGET TOTAL SUSTENTION score", "setting": "[3]; patient 4, 1.5 gm, 0 gm score 2.5", "result": 0.5}, {"measurement": "WHIGET TOTAL ACTION score", "setting": "[3]; patient 4, 1.5 gm, range 0-40, 0 gm score 19.5", "result": 4}, {"measurement": "WHIGET TOTAL SUSTENTION score", "setting": "[3]; patient 4, 2 gm, 0 gm score 2.5", "result": 0}, {"measurement": "WHIGET TOTAL ACTION score", "setting": "[3]; patient 4, 2 gm, range 0-40, 0 gm score 19.5", "result": 5}, {"measurement": "Rx effect, WHIGET TOTAL ACTION (improvement in tremor)", "setting": "[3]; patient 4", "result": 79, "unit": "%"}, {"measurement": "WHIGET TOTAL ACTION score", "setting": "[3]; patient 5, 1 gm, 0 gm score 23", "result": 19}, {"measurement": "WHIGET TOTAL ACTION score", "setting": "[3]; patient 5, 1.5 gm, 0 gm score 23", "result": 13.5}, {"measurement": "WHIGET TOTAL SUSTENTION score", "setting": "[3]; patient 5, 1.5 gm, 0 gm score 4", "result": 2.5}, {"measurement": "WHIGET TOTAL ACTION score", "setting": "[3]; patient 5, 2 gm, 0 gm score 23", "result": 12}, {"measurement": "WHIGET TOTAL SUSTENTION score", "setting": "[3]; patient 5, 2 gm, 0 gm score 4", "result": 3}, {"measurement": "Rx effect, WHIGET TOTAL ACTION (improvement in tremor)", "setting": "[3]; patient 5", "result": 48, "unit": "%"}, {"measurement": "Blinded rating of the severity of torticollis", "setting": "[3]; patient #4, 1 gm twice-daily dose, before: moderate", "result": "mild"}, {"measurement": "kinetic tremor amplitude", "setting": "[3]; patient #4, after 2 gm", "result": "markedly diminished"}, {"measurement": "kinetic tremor amplitude", "setting": "[3]; patient #5, after 2 gm", "result": "the amplitude has diminished"}, {"measurement": "effect on myoclonus", "setting": "[4]", "result": "improved myoclonus"}]}]}
